These results are taken from US8703790B2, “Bis [O-(14-benzoylaconine-8-yl)] esters” (priority 2008, dated 2014).

Assay [1] concerns A549. Particulars: A549, NCI data base values; cited from earlier work.
Assay [2] concerns HCT-15. Particulars: HCT-15, NCI data base values; cited from earlier work.
Assay [3] relates to MCF-7. Particulars: MCF-7, NCI data base values; cited from earlier work.
Assay [4] relates to A549 (lung cancer). Put plainly: In vitro cytotoxicity test (MTT) against human tumour cell line A549. It counts as cell-based. To be noted: A549, 24 h contact, 48 h re-growth. Here is the method:
(§1) Human tumour cell lines A549 (lung cancer), HCT-15 (colon cancer) and MCF-7 (breast cancer) have been obtained from the Developmental Therapeutics Program of the National Cancer Institute (Rockville, Md., USA). Cells were routinely grown with RPMI 1640 medium supplemented with 10% foetal calf serum, both obtained from Biochrom AG (Berlin, Germany). They were grown on Petri dishes (Nunc, Denmark) at 37° C. in a humidified atmosphere containing 5% CO2. Cells were replicated every 4 days and the medium changed once in-between.
(§2) Cytotoxicity has been evaluated on exponentially growing cells grown for 24 h in presence of the compounds to be tested. Briefly, 4000 cells were seeded in 96-well plates with 200 μL of complete medium; 24 hours later the medium was supplemented with a series of different concentrations of compounds and the contact maintained for 24 h. Compounds were dissolved in pure water and sterilised using polycarbonate membrane filters of 0.22 μm (Millipore, Molsheim, France). The cells were then allowed to re-grow for 48 hours; viable and metabolically active cells were quantitatively estimated by coloration with the MTT dye (1-(4,5-dimethylthyazol-2-yl)-3,5-diphenylformazan), Sigma-Aldrich Chimie, Saint-Quentin-Fallavier, France). The amount of substance allowing a 50% decrease in cell numbers is indicative of the cytotoxicity and represents the IC50 of compound.

Assay [5] relates to HCT-15 (colon cancer). As to the kind of experiment: In vitro cytotoxicity test (MTT) against human tumour cell line HCT-15. In kind it is cell-based. To be noted: HCT-15, 24 h contact, 48 h re-growth. As for the experimental part:
as §1, §2

Assay [6] deals with MCF-7 (breast cancer). As to the kind of experiment: In vitro cytotoxicity test (MTT) against human tumour cell line MCF-7. To be noted: MCF-7, 24 h contact, 48 h re-growth. It counts as cell-based. As for the experimental part:
as §1, §2

Assay [7] deals with HTC-15 (colon cancer), A549 (lung cancer), MCF-7 (breast cancer). Particulars: HTC-15, A549, MCF-7; publication A. Chodoeva et al.; read-out: IC50 in these three cell lines; cited from earlier work.
For assay [8] the following is noted: background statement; cited from earlier work.
For assay [9], the system named is mouse tumours. To be noted: mouse tumours in vivo; cited from earlier work.
Assay [10] concerns mitochondrial oxidoreductases. To be noted: tumour cells; Picardo et al. 1985; cited from earlier work.

Turning to `O=c1[nH]cc(F)c(=O)[nH]1` [5-FU, fluorouracil], the IC50 in assay [1] was 2.11 µM; in assay [2] it was 5.69 µM; in assay [3], 1.75 µM.
Take `CCN1CC2(COC)C(O)CC(OC)C34C5CC6(O)C(OC)C(O)C(OC(=O)CCCCCCCC(=O)O)(C5C6OC(=O)c5ccccc5)C(C(OC)C23)C14` (stereo not shown) [8-O-azeloyl-14-benzoylaconine, reference compound]: the concentration for half-maximal inhibition (IC50) is 16.8 µM in [4], 19.4 µM in assay [5], 10.3 µM in assay [6] and 10 to 18 µM in assay [7].
With `CCN1C[C@]2(COC)[C@H](O)C[C@H](OC)[C@]34C1[C@H]([C@H](OC)[C@H]23)[C@]1(OC(=O)CCCCCCCC(=O)O[C@]23[C@H]5[C@@H](OC(=O)c6ccccc6)[C@](O)(C[C@H]5[C@@]56C7[C@@H]2[C@H](OC)[C@@H]5[C@](COC)(CN7CC)[C@H](O)C[C@@H]6OC)[C@@H](OC)[C@@H]3O)[C@H]2[C@@H](OC(=O)c3ccccc3)[C@](O)(C[C@H]24)[C@@H](OC)[C@@H]1O` [ADD, bis[O-(14-benzoylaconine-8-yl)]-azelate], the half-maximal inhibitory concentration (IC50) in assay [4] amounted to 19.1 µM; in [5], 22 µM; in [6] it was 15.5 µM.
With `CCN1C[C@]2(COC)[C@H](O)C[C@H](OC)[C@]34C1[C@H]([C@H](OC)[C@H]23)[C@]1(O)[C@H]2[C@@H](O)[C@](O)(C[C@H]24)[C@@H](OC)[C@@H]1O` [Aconine], the antiproliferative activity result in assay [8] is reported as “devoid of antiproliferative activity”.
For the compound `O=C(O)CCCCCCCC(=O)O` [Azelaic acid, azelaic acid], the antitumour activity entry in assay [9] is reported as “total absence of antitumour activity”. For the same compound, in assay [10], the “inhibition of mitochondrial oxidoreductases” value is on record as “inhibitor of mitochondrial oxidoreductases”.
Take `CCN1C[C@]2(COC)[C@H](O)C[C@H](OC)[C@]34C1[C@H]([C@H](OC)[C@H]23)[C@]1(OC(=O)CCCCCC(=O)O[C@]23[C@H]5[C@@H](OC(=O)c6ccccc6)[C@](O)(C[C@H]5[C@@]56C7[C@@H]2[C@H](OC)[C@@H]5[C@](COC)(CN7CC)[C@H](O)C[C@@H]6OC)[C@@H](OC)[C@@H]3O)[C@H]2[C@@H](OC(=O)c3ccccc3)[C@](O)(C[C@H]24)[C@@H](OC)[C@@H]1O` [PDD, bis[O-(14-benzoylaconine-8-yl)]-pimelate]: the figures for the IC50 in assay [4], in [5] and in [6] were 3.76 µM, 3.76 µM and 7.5 µM, respectively.
`N.N.[Cl][Pt][Cl]` [cisplatin]: the 50% inhibitory concentration (IC50) in assay [1] was 3.08 µM; in assay [2] it was 7.21 µM; in [3], 3.01 µM.
For the compound `COc1cc([C@@H]2c3cc4c(cc3[C@@H](O[C@@H]3O[C@@H]5CO[C@@H](C)O[C@H]5[C@H](O)[C@H]3O)[C@H]3COC(=O)[C@H]23)OCO4)cc(OC)c1O` [etoposide], the results for the 50% inhibitory concentration (IC50) in assay [1], in assay [2] and in [3] were 3.61 µM, 17.6 µM and 5.73 µM, respectively.
In the case of `N[C@@H](Cc1ccc(N(CCCl)CCCl)cc1)C(=O)O` [mephalan], the 50% inhibitory concentration (IC50) was 28.7 µM in assay [1], 39.4 µM in assay [2] and 11.1 µM in assay [3].

Broadly, the IC50 is the concentration that inhibits the measured activity by half.
